Our source for the IC50 values is patent US20090298820A1, “3-SUBSTITUTED-1H-PYRROLO[2,3-B]PYRIDINE AND 3-SUBSTITUTED-1H-PYRROLO[3,2-B]PYRIDINE COMPOUNDS, THEIR USE AS MTOR KINASE AND PI3 KINASE INHIBITORS, AND THEIR SYNTHESES” (Wyeth, priority 2008, published 2009).

A word on the IC50: it is the concentration at which inhibition is half-maximal.

Holding throughout (format): biochemical
The target of test [1] is mTOR (Homo sapiens, UniProt P42345). In words: mTOR enzyme assay (DELFIA format, His6-S6K substrate). Conditions: read-out: mTOR Kinase Median IC50.
Test [2] has as its target PI3Kα (Homo sapiens, UniProt P42336). The test can be described thus: PI3K-alpha fluorescence polarization assay. Particulars: read-out: PI3Kα Median IC50. On the technique in general: In fluorescence polarisation assays a small probe gives low polarisation when free and higher when bound to something large.
Test [3] concerns the target PI3Kγ (Homo sapiens, UniProt P48736). The test can be described thus: PI3K-gamma fluorescence polarization assay. Conditions: read-out: PI3Kγ Median IC50.

Sequence of PI3Kγ (P48736 whole entry, species assumed): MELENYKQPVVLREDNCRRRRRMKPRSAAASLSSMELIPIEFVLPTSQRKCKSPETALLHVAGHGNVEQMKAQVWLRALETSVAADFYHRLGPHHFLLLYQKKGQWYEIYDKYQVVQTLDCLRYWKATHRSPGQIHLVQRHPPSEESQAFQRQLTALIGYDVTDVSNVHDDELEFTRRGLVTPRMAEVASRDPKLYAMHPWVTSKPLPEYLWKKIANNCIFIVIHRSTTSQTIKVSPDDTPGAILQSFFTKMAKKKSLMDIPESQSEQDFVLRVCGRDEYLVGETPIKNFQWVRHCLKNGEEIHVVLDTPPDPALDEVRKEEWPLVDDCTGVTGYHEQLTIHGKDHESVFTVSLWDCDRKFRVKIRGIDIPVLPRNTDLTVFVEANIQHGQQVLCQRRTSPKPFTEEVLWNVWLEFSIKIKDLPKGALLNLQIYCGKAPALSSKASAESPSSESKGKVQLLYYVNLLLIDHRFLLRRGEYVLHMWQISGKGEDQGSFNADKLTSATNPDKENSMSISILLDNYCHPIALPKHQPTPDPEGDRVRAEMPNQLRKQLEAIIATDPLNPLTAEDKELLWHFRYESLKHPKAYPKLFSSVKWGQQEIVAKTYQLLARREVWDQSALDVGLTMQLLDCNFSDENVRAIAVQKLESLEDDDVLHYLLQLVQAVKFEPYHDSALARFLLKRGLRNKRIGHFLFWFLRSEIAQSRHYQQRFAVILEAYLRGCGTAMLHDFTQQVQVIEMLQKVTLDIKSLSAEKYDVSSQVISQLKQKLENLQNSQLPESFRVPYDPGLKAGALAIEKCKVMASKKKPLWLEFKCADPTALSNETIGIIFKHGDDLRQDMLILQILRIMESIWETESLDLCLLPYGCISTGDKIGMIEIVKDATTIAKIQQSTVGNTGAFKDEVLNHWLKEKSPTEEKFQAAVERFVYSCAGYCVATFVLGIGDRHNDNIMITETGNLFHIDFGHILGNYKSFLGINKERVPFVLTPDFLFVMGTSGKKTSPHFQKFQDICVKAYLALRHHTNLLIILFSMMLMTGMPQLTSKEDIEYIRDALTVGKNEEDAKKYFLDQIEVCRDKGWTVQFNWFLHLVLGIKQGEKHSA
Sequence of PI3Kα (P42336 whole entry, species assumed): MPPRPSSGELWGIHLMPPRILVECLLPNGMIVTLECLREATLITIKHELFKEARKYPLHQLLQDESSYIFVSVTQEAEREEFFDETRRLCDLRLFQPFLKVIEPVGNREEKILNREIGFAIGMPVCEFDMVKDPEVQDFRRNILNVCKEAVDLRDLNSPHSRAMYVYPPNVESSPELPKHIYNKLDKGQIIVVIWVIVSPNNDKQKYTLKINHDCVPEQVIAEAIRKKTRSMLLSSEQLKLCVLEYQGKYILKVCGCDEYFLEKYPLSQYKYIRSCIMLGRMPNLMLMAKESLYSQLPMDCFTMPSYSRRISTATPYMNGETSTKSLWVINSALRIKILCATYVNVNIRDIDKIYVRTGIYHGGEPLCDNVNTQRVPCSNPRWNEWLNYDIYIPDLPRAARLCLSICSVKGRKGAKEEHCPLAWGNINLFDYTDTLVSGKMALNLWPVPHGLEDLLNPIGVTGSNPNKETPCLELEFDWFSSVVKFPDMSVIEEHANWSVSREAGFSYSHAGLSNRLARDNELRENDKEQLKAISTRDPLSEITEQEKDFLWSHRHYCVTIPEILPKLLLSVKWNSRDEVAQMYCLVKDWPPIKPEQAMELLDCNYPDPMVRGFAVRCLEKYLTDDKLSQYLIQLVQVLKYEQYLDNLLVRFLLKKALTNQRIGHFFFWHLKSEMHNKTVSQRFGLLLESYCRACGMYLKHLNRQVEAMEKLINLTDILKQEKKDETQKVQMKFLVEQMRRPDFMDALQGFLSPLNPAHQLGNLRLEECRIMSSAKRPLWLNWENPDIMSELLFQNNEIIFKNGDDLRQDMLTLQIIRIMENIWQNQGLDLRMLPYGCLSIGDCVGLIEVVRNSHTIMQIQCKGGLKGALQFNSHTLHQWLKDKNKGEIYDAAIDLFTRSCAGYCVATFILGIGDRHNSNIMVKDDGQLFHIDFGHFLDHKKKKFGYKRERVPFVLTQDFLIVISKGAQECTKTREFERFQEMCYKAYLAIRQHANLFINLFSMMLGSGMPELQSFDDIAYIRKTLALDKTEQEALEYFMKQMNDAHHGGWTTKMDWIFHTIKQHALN
Sequence of PI3Kα (P27986 whole entry partner, species assumed): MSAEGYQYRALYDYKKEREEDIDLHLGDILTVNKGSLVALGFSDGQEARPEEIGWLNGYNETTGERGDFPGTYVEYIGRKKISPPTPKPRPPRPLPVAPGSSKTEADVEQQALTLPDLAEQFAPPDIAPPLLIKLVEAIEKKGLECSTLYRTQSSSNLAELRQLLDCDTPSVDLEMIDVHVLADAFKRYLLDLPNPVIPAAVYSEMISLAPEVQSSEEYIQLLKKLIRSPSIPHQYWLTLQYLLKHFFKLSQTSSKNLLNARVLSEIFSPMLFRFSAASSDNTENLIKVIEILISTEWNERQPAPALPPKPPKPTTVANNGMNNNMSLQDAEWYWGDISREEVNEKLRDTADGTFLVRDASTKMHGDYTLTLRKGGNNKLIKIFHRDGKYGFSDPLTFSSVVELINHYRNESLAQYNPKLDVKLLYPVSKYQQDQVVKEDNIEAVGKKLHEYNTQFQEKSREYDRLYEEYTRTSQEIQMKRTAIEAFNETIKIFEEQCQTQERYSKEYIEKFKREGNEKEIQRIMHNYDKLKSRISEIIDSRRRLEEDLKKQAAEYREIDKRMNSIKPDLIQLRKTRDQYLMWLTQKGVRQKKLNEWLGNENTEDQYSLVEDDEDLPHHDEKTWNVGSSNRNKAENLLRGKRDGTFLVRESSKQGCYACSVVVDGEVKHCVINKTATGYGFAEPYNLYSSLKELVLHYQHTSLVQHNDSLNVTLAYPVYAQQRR

In the case of `Cn1cc(/C=C2\Oc3cccc(O)c3C2=O)c2c(-c3ccc(N4CCCCC4)nc3)ccnc21` [Compound 70, (2Z)-4-hydroxy-2-{[1-methyl-4-(6-piperidin-1-ylpyridin-3-yl)-1H-pyrrolo[2,3-b]pyridin-3-yl]methylene}-1-benzofuran-3(2H)-one], the 50% inhibitory concentration (IC50) was found to be 115 nM in test [1], 271 nM in test [2] and 242 nM in test [3].

With `Cn1cc(/C=C2\Oc3cccc(O)c3C2=O)c2c(-c3ccc(S(C)(=O)=O)cc3)ccnc21` [Compound 73, (2Z)-4-hydroxy-2-({1-methyl-4-[4-(methylsulfonyl)phenyl]-1H-pyrrolo[2,3-b]pyridin-3-yl}methylene)-1-benzofuran-3(2H)-one], the IC50 in test [1] was determined as 3.1 nM; in test [2] it was 23 nM; in test [3], 75 nM.

Take `CNS(=O)(=O)c1ccc(-c2ccnc3c2c(/C=C2\Oc4cc(O)cc(O)c4C2=O)cn3C)cc1` [Compound 77, 4-{3-[(Z)-(4,6-dihydroxy-3-oxo-1-benzofuran-2(3H)-ylidene)methyl]-1-methyl-1H-pyrrolo[2,3-b]pyridin-4-yl}-N-methylbenzenesulfonamide]: the half-inhibitory concentration (IC50) in test [1] stood at 0.2 nM; in test [2] it was 2 nM; in test [3], 22 nM.

In the case of `Cn1cc(/C=C2\Oc3cc(O)cc(O)c3C2=O)c2c(C3=CCNCC3)ccnc21` [Compound 78, (2Z)-4,6-dihydroxy-2-{[1-methyl-4-(1,2,3,6-tetrahydropyridin-4-yl)-1H-pyrrolo[2,3-b]pyridin-3-yl]methylene}-1-benzofuran-3(2H)-one], the IC50 was 5 nM in test [1], 31 nM in test [2] and 315 nM in test [3].

In the case of `Cn1cc(/C=C2\Oc3cc(O)cc(O)c3C2=O)c2c(-c3cccc(C(=O)N4CCCC4)c3)ccnc21` [Compound 79, (2Z)-4,6-dihydroxy-2-({1-methyl-4-[3-(pyrrolidin-1-ylcarbonyl)phenyl]-1H-pyrrolo[2,3-b]pyridin-3-yl}methylene)-1-benzofuran-3(2H)-one], the half-inhibitory concentration (IC50) in test [1] turned out to be 1.4 nM; in test [2], 8 nM; in test [3], 49 nM.

`Cn1cc(/C=C2\Oc3cc(O)cc(O)c3C2=O)c2c(-c3cccc(S(=O)(=O)N4CCCCC4)c3)ccnc21` [Compound 80, (2Z)-4,6-dihydroxy-2-({1-methyl-4-[3-(piperidin-1-ylsulfonyl)phenyl]-1H-pyrrolo[2,3-b]pyridin-3-yl}methylene)-1-benzofuran-3(2H)-one]: the values for the half-maximal inhibitory concentration (IC50) in test [1], in test [2] and in test [3] were 1.8 nM, 23 nM and 69 nM, respectively.

As to `COc1ccc(-c2ccnc3c2c(/C=C2\Oc4cccc(O)c4C2=O)cn3C)cc1S(=O)(=O)N1CCOCC1` [Compound 81, (2Z)-4-hydroxy-2-({4-[4-methoxy-3-(morpholin-4-ylsulfonyl)phenyl]-1-methyl-1H-pyrrolo[2,3-b]pyridin-3-yl}methylene)-1-benzofuran-3(2H)-one], the concentration for half-maximal inhibition (IC50) in test [1] worked out at 1.6 nM; in test [2] it was 28 nM; in test [3] it was 79 nM.

As for `Cn1cc(/C=C2\Oc3cccc(O)c3C2=O)c2c(-c3ccc(S(=O)(=O)NC4CC4)cc3)ccnc21` [Compound 82, N-cyclopropyl-4-{3-[(Z)-(4-hydroxy-3-oxo-1-benzofuran-2(3H)-ylidene)methyl]-1-methyl-1H-pyrrolo[2,3-b]pyridin-4-yl}benzenesulfonamide], the IC50 was 1.4 nM in test [1], 20 nM in test [2] and 70 nM in test [3].

As to `Cn1cc(/C=C2\Oc3cccc(O)c3C2=O)c2c(-c3ccc(C(=O)Nc4ccc(F)cc4)cc3)ccnc21` [Compound 83, N-(4-fluorophenyl)-4-{3-[(Z)-(4-hydroxy-3-oxo-1-benzofuran-2(3H)-ylidene)methyl]-1-methyl-1H-pyrrolo[2,3-b]pyridin-4-yl}benzamide], the concentration for half-maximal inhibition (IC50) was found to be 9.5 nM in test [1], 124 nM in test [2] and 951 nM in test [3].

For the compound `Cn1cc(/C=C2\Oc3cccc(O)c3C2=O)c2c(-c3ccc(Oc4ccccc4)cc3)ccnc21` [Compound 84, (2Z)-4-hydroxy-2-{[1-methyl-4-(4-phenoxyphenyl)-1H-pyrrolo[2,3-b]pyridin-3-yl]methylene}-1-benzofuran-3(2H)-one], the IC50 was 165 nM in test [1], 4880 nM in test [2] and > 10000 nM in test [3].

For `Cn1cc(/C=C2\Oc3cccc(O)c3C2=O)c2c(-c3cc4ccccc4o3)ccnc21` [Compound 85, (2Z)-2-{[4-(1-benzofuran-2-yl)-1-methyl-1H-pyrrolo[2,3-b]pyridin-3-yl]methylene}-4-hydroxy-1-benzofuran-3(2H)-one], the half-inhibitory concentration (IC50) was 26.5 nM in test [1], 273 nM in test [2] and 157 nM in test [3].

Regarding `COc1ccc(-c2ccnc3c2c(/C=C2\Oc4cccc(O)c4C2=O)cn3C)cc1S(=O)(=O)N1CCCC1` [Compound 86, (2Z)-4-hydroxy-2-({4-[4-methoxy-3-(pyrrolidin-1-ylsulfonyl)phenyl]-1-methyl-1H-pyrrolo[2,3-b]pyridin-3-yl}methylene)-1-benzofuran-3(2H)-one], the IC50 in test [1] was 3.4 nM; in test [2] it was 77 nM; in test [3] it was 600 nM.

`Cn1cc(/C=C2\Oc3cc(O)cc(O)c3C2=O)c2c(-c3ccc(Oc4ccccc4)cc3)ccnc21` [Compound 87, (2Z)-4,6-dihydroxy-2-{[1-methyl-4-(4-phenoxyphenyl)-1H-pyrrolo[2,3-b]pyridin-3-yl]methylene}-1-benzofuran-3(2H)-one]: the 50% inhibitory concentration (IC50) in test [1] was 3.6 nM; in test [2], 161 nM; in test [3] it was 66 nM.

Consider `COc1ccc(-c2ccnc3c2c(/C=C2\Oc4cc(O)cc(O)c4C2=O)cn3C)cc1S(=O)(=O)N1CCOCC1` [Compound 88, (2Z)-4,6-dihydroxy-2-({4-[4-methoxy-3-(morpholin-4-ylsulfonyl)phenyl]-1-methyl-1H-pyrrolo[2,3-b]pyridin-3-yl}methylene)-1-benzofuran-3(2H)-one], for which the IC50 came to 0.2 nM in test [1], 8 nM in test [2] and 27 nM in test [3].

As for `COc1ccc(-c2ccnc3c2c(/C=C2\Oc4cc(O)cc(O)c4C2=O)cn3C)cc1S(=O)(=O)N1CCCC1` [Compound 89, (2Z)-4,6-dihydroxy-2-({4-[4-methoxy-3-(pyrrolidin-1-ylsulfonyl)phenyl]-1-methyl-1H-pyrrolo[2,3-b]pyridin-3-yl}methylene)-1-benzofuran-3(2H)-one], the IC50 in test [1] came to 0.5 nM; in test [2] it was 8 nM; in test [3], 50 nM.

Take `Cn1cc(/C=C2\Oc3cccc(O)c3C2=O)c2c(-c3ccc(S(=O)(=O)NCc4ccccc4)cc3)ccnc21` [Compound 90, N-benzyl-4-{3-[(Z)-(4-hydroxy-3-oxo-1-benzofuran-2(3H)-ylidene)methyl]-1-methyl-1H-pyrrolo[2,3-b]pyridin-4-yl}benzenesulfonamide]: the IC50 in test [1] was determined as 24 nM; in test [2], 10 nM; in test [3], 16 nM.

For the compound `Cn1cc(/C=C2\Oc3cccc(O)c3C2=O)c2c(-c3ccc(C(=O)N4CCCC4)cc3)ccnc21` [Compound 91, (2Z)-4-hydroxy-2-({1-methyl-4-[4-(pyrrolidin-1-ylcarbonyl)phenyl]-1H-pyrrolo[2,3-b]pyridin-3-yl}methylene)-1-benzofuran-3(2H)-one], the IC50 in test [1] stood at 0.7 nM; in test [2], 36 nM; in test [3], 74 nM.

In the case of `Cn1cc(/C=C2\Oc3cc(O)cc(O)c3C2=O)c2c(-c3ccc(C(=O)N4CCCC4)cc3)ccnc21` [Compound 92, (2Z)-4,6-dihydroxy-2-({1-methyl-4-[4-(pyrrolidin-1-ylcarbonyl)phenyl]-1H-pyrrolo[2,3-b]pyridin-3-yl}methylene)-1-benzofuran-3(2H)-one], the concentration for half-maximal inhibition (IC50) in test [1] was 0.2 nM; in test [2] it was 9 nM; in test [3], 54 nM.

For `Cn1cc(/C=C2\Oc3cccc(O)c3C2=O)c2c(-c3cccc(C(=O)Nc4ccc(F)cc4)c3)ccnc21` [Compound 96, N-(4-fluorophenyl)-3-{3-[(Z)-(4-hydroxy-3-oxo-1-benzofuran-2(3H)-ylidene)methyl]-1-methyl-1H-pyrrolo[2,3-b]pyridin-4-yl}benzamide], the concentration for half-maximal inhibition (IC50) in test [1] is 13 nM; in test [2] it was 301 nM; in test [3], 2700 nM.

`Cn1cc(/C=C2\Oc3cc(O)cc(O)c3C2=O)c2c(-c3cccc(C(=O)Nc4ccc(F)cc4)c3)ccnc21` [Compound 97, 3-{3-[(Z)-(4,6-dihydroxy-3-oxo-1-benzofuran-2(3H)-ylidene)methyl]-1-methyl-1H-pyrrolo[2,3-b]pyridin-4-yl}-N-(4-fluorophenyl)benzamide]: the values for the IC50 in test [1], in test [2] and in test [3] were 0.7 nM, 13 nM and 321 nM, respectively.

For `Cn1cc(/C=C2\Oc3cc(O)cc(O)c3C2=O)c2c(-c3ccc(F)c(C(=O)Nc4ccccc4)c3)ccnc21` [Compound 98, 5-{3-[(Z)-(4,6-dihydroxy-3-oxo-1-benzofuran-2(3H)-ylidene)methyl]-1-methyl-1H-pyrrolo[2,3-b]pyridin-4-yl}-2-fluoro-N-phenylbenzamide], the IC50 in test [1] was determined as 0.2 nM; in test [2], 11 nM; in test [3], 100 nM.

Regarding `CCn1cc(/C=C2\Oc3cccc(O)c3C2=O)c2c(-c3ccccc3)ccnc21` [Compound 116, (2Z)-2-[(1-ethyl-4-phenyl-1H-pyrrolo[2,3-b]pyridin-3-yl)methylene]-4-hydroxy-1-benzofuran-3(2H)-one], the figures for the half-maximal inhibitory concentration (IC50) in test [1], in test [2] and in test [3] were 23 nM, 8490 nM and > 10000 nM, respectively.

Regarding `CNC(=O)Nc1ccc2c(c1)C(=O)/C(=C/c1c[nH]c3ncc(OC)cc13)O2` [Compound 119, 1-{(2Z)-2-[(5-methoxy-1H-pyrrolo[2,3-b]pyridin-3-yl)methylene]-3-oxo-2,3-dihydro-1-benzofuran-5-yl}-3-methylurea], the IC50 in test [1] worked out at 72 nM; in test [2], 46 nM; in test [3], 183 nM.
